The results in this text go back to PubChem BioAssay AID1259407 (Chemical Carcinogenesis Research Information System (CCRIS), 2018).

The source made the active and inactive calls. The rule behind the calls is not given here.

The test system of this data set is CCRIS mutagenicity, Ames/micronucleus/aberration tests. The experiment in a line: CCRIS mutagenicity studies.
Setting [1] is: Test System: AMES SALMONELLA TYPHIMURIUM, Strain/Indicator: TA1535, Metabolic Activation: NONE, Method: STANDARD PLATE.
Where [2] appears, read: Test System: CHINESE HAMSTER V-79, Strain/Indicator: V-79/6-THIOGUANINE, Metabolic Activation: NONE, Method: FLASK ASSAY.
The mark [3] stands for this setting: Test System: AMES SALMONELLA TYPHIMURIUM, Strain/Indicator: TA98, Metabolic Activation: NONE, Method: STANDARD PLATE.
Setting [4] is: Test System: AMES SALMONELLA TYPHIMURIUM, Strain/Indicator: TA100, Metabolic Activation: RAT, LIVER, S-9, AROCLOR 1254, Method: STANDARD PLATE.
[5] abbreviates: Test System: AMES SALMONELLA TYPHIMURIUM, Strain/Indicator: TA98, Metabolic Activation: NONE, Method: PREINCUBATION
Setting [6] is: Test System: AMES SALMONELLA TYPHIMURIUM, Strain/Indicator: TA100, Metabolic Activation: NONE, Method: PREINCUBATION
Setting [7] is: Test System: AMES SALMONELLA TYPHIMURIUM, Strain/Indicator: TA100, Metabolic Activation: NONE, Method: STANDARD PLATE.
Setting [8] is: Test System: AMES SALMONELLA TYPHIMURIUM, Strain/Indicator: TA98, Metabolic Activation: RAT, LIVER, S-9, AROCLOR 1254, Method: STANDARD PLATE.

With `CCCN(N=O)C(N)=O`, the mutagenic call was “active; positive” under setting [1]; “active; positive” under setting [2]; “active; positive” (Test System: E. COLI B, Strain/Indicator: H/R30R, Metabolic Activation: NONE); “active; positive” (Test System: E. COLI B, Strain/Indicator: HS30R, Metabolic Activation: NONE); “active; positive” (Test System: E. COLI, Strain/Indicator: WP2, Metabolic Activation: NONE, Method: STANDARD PLATE); “active; positive” (Test System: E. COLI, Strain/Indicator: WP2 UVRA, Metabolic Activation: NONE, Method: STANDARD PLATE).
As for `CN(C)c1ccc(C(=C2C=CC(=[N+](C)C)C=C2)c2ccccc2Cl)cc1`, the mutagenic call (Test System: Ames Salmonella typhimurium, Strain/Indicator: TA98, Metabolic Activation: None, Method: Preincubation) is “inactive; negative”; the mutagenic call (Test System: Ames Salmonella typhimurium, Strain/Indicator: TA98, Metabolic Activation: Rat, Liver, S-9, Aroclor 1254, Method: Preincubation) was “inactive; negative”; the mutagenic call (Test System: Ames Salmonella typhimurium, Strain/Indicator: TA100, Metabolic Activation: None, Method: Preincubation) is “inactive; negative”; the mutagenic call (Test System: Ames Salmonella typhimurium, Strain/Indicator: TA100, Metabolic Activation: Rat, Liver, S-9, Aroclor 1254, Method: Preincubation) was “inactive; negative”; the mutagenic call (Test System: Ames Salmonella typhimurium, Strain/Indicator: TA102, Metabolic Activation: None, Method: Preincubation) was “inactive; negative”; the mutagenic call (Test System: Ames Salmonella typhimurium, Strain/Indicator: TA102, Metabolic Activation: Rat, Liver, S-9, Aroclor 1254, Method: Preincubation) is “inactive; negative”. For the same compound, the mutagenic call is “inactive; negative” (Test System: Ames Salmonella typhimurium, Strain/Indicator: TA1535, Metabolic Activation: None, Method: Preincubation) and “inactive; negative” (Test System: Ames Salmonella typhimurium, Strain/Indicator: TA1535, Metabolic Activation: Rat, Liver, S-9, Aroclor 1254, Method: Preincubation).
For the compound `O=C1C=Cc2c(ccc3c2ccc2ccccc23)C1=O`, the mutagenic call was “inactive; negative” under setting [3] and “inactive; negative” under setting [4].
For the compound `O=[N+]([O-])c1ccc(I)c([N+](=O)[O-])c1`, the mutagenic call runs as follows: (Test System: AMES SALMONELLA TYPHIMURIUM, Strain/Indicator: TA98(1,8-DNP6), Metabolic Activation: NONE, Method: PREINCUBATION) “active; positive”; (Test System: AMES SALMONELLA TYPHIMURIUM, Strain/Indicator: TA98(NR), Metabolic Activation: NONE, Method: PREINCUBATION) “active; positive”; under setting [5], “active; positive”.
With `CC(=O)/C(C)=N/O`, the mutagenic call (Test System: AMES SALMONELLA TYPHIMURIUM, Strain/Indicator: TA98, Metabolic Activation: HAMSTER, LIVER, S-9, AROCLOR 1254 (10%), Method: PREINCUBATION) is “inactive; negative”; the mutagenic call under setting [5] is “inactive; negative”; the mutagenic call (Test System: AMES SALMONELLA TYPHIMURIUM, Strain/Indicator: TA98, Metabolic Activation: RAT, LIVER, S-9, AROCLOR 1254 (10%), Method: PREINCUBATION) is “inactive; negative”; the mutagenic call (Test System: AMES SALMONELLA TYPHIMURIUM, Strain/Indicator: TA100, Metabolic Activation: HAMSTER, LIVER, S-9, AROCLOR 1254 (10%), Method: PREINCUBATION) is “inactive; negative”; the mutagenic call under setting [6] is “inactive; negative”; the mutagenic call (Test System: AMES SALMONELLA TYPHIMURIUM, Strain/Indicator: TA100, Metabolic Activation: RAT, LIVER, S-9, AROCLOR 1254 (10%), Method: PREINCUBATION) is “inactive; negative”. For the same compound, the mutagenic call is “inactive; negative” (Test System: AMES SALMONELLA TYPHIMURIUM, Strain/Indicator: TA1535, Metabolic Activation: HAMSTER, LIVER, S-9, AROCLOR 1254 (10%), Method: PREINCUBATION); “inactive; negative” (Test System: AMES SALMONELLA TYPHIMURIUM, Strain/Indicator: TA1535, Metabolic Activation: NONE, Method: PREINCUBATION); “inactive; negative” (Test System: AMES SALMONELLA TYPHIMURIUM, Strain/Indicator: TA1535, Metabolic Activation: RAT, LIVER, S-9, AROCLOR 1254 (10%), Method: PREINCUBATION); “inactive; negative” (Test System: AMES SALMONELLA TYPHIMURIUM, Strain/Indicator: TA1537, Metabolic Activation: HAMSTER, LIVER, S-9, AROCLOR 1254 (10%), Method: PREINCUBATION); “inactive; negative” (Test System: AMES SALMONELLA TYPHIMURIUM, Strain/Indicator: TA1537, Metabolic Activation: NONE, Method: PREINCUBATION); “inactive; negative” (Test System: AMES SALMONELLA TYPHIMURIUM, Strain/Indicator: TA1537, Metabolic Activation: RAT, LIVER, S-9, AROCLOR 1254 (10%), Method: PREINCUBATION).
With `CN1CCN(c2ccc3nc(CCc4ccc5nc(-c6ccc(N(CCCl)CCCl)cc6)[nH]c5c4)[nH]c3c2)CC1`, the mutagenic call by setting is: under setting [3], “inactive; negative”; under setting [7], “inactive; negative”; (Test System: AMES SALMONELLA TYPHIMURIUM, Strain/Indicator: TA102, Metabolic Activation: NONE, Method: STANDARD PLATE) “active; positive”.
As for `CN(CCC#N)c1ccc(N=Nc2ccc3ncsc3c2)cc1`, the mutagenic call (Test System: AMES SALMONELLA TYPHIMURIUM, Strain/Indicator: TA98, Metabolic Activation: RAT, LIVER, S-9, AROCLOR, Method: PREINCUBATION) is “active; positive” and the mutagenic call (Test System: AMES SALMONELLA TYPHIMURIUM, Strain/Indicator: TA98, Metabolic Activation: RAT, LIVER, S-9, AROCLOR, Method: STANDARD PLATE) was “active; positive”.
Turning to `CC(=O)OCCCCCCCCONC(=O)c1ccccc1`, the mutagenic call runs as follows: under setting [3], “active; positive”; under setting [7], “active; positive”; (Test System: AMES SALMONELLA TYPHIMURIUM, Strain/Indicator: TA100, Metabolic Activation: RAT, S-9, AROCLOR, Method: STANDARD PLATE) “inactive; negative”.
On to `O=NN1CCSC1CO` (centres undefined), for which the mutagenic call is, setting by setting: under setting [5], “inactive; negative”; under setting [3], “inactive; negative”; (Test System: AMES SALMONELLA TYPHIMURIUM, Strain/Indicator: TA98, Metabolic Activation: RAT, LIVER, S-9, AROCLOR 1254, Method: PREINCUBATION) “inactive; negative”; under setting [8], “inactive; negative”; under setting [6], “active; positive”; under setting [7], “active; positive”. Further, the mutagenic call is “active; positive” (Test System: AMES SALMONELLA TYPHIMURIUM, Strain/Indicator: TA100, Metabolic Activation: RAT, LIVER, S-9, AROCLOR 1254, Method: PREINCUBATION) and “active; positive” under setting [4].
Consider `O=C(O)C[C@H](NC(=O)COc1cc(Cl)c(Cl)cc1Cl)C(=O)O`, for which the mutagenic call by setting is: (Test System: AMES SALMONELLA TYPHIMURIUM, Strain/Indicator: TA97, Metabolic Activation: NONE, Method: STANDARD PLATE) “inactive; negative”; (Test System: AMES SALMONELLA TYPHIMURIUM, Strain/Indicator: TA97, Metabolic Activation: RAT, LIVER, S-9, AROCLOR 1254, Method: STANDARD PLATE) “inactive; negative”; under setting [3], “inactive; negative”; under setting [8], “inactive; negative”; under setting [7], “inactive; negative”; under setting [4], “inactive; negative”. The mutagenic call under setting [1] was “inactive; negative”; the mutagenic call (Test System: AMES SALMONELLA TYPHIMURIUM, Strain/Indicator: TA1535, Metabolic Activation: RAT, LIVER, S-9, AROCLOR 1254, Method: STANDARD PLATE) is “inactive; negative”; the mutagenic call (Test System: AMES SALMONELLA TYPHIMURIUM, Strain/Indicator: TA1538, Metabolic Activation: NONE, Method: STANDARD PLATE) was “inactive; negative”; the mutagenic call (Test System: AMES SALMONELLA TYPHIMURIUM, Strain/Indicator: TA1538, Metabolic Activation: RAT, LIVER, S-9, AROCLOR 1254, Method: STANDARD PLATE) is “inactive; negative”.
`COC(COC(N)=O)C1=C(N2CC2)C(=O)C(C)=C(N2CC2)C1=O` (centres undefined): the mutagenic call runs as follows: under setting [3], “active; positive”; under setting [7], “active; positive”; (Test System: AMES SALMONELLA TYPHIMURIUM, Strain/Indicator: TA1537, Metabolic Activation: NONE, Method: STANDARD PLATE) “active; positive”; under setting [2], “active; positive”; (Test System: E. COLI, Strain/Indicator: WP2 (HCR), Metabolic Activation: NONE, Method: STANDARD PLATE) “active; positive”.
In the case of `CC(=O)OO[N+](=O)[O-]`, the mutagenic call was “active; positive” (Test System: AMES SALMONELLA TYPHIMURIUM, Strain/Indicator: TA100, Metabolic Activation: NONE) and “active; positive” (Test System: AMES SALMONELLA TYPHIMURIUM, Strain/Indicator: TA100, Metabolic Activation: RAT, LIVER, S-9, AROCLOR 1254).
